What was measured:
Assay type in all cases: in vitro ADME
CYP2D6 = target: T1, CYP2D6 (Homo sapiens, UniProt P10635); experiment: CYP2D6 inhibition (dextromethorphan O-demethylase) in human liver microsomes, substrate cocktail LC-MS/MS
T1 construct: the incubation mixtures containing pooled HLMs (0.25 mg/mL, H2630, Xenotech); tissue Xenotech H2630; host or cells: pooled human liver microsomes
Protocol: (§1) The inhibitory effects of two selaginellins on the metabolism of ten P450 probe substrates were evaluated using previously reported method with minor modification. Phenacetin O-deethylase, coumarin 7-hydroxylase, bupropion 4-hydroxylase, amodiaquine N-deethylase, tolbutamide 4-hydroxylase, omeprazole 5-hydroxylase, dextromethorphan O-demethylase, chlorzoxazone 6-hydroxylase and midazolam 1′-hydroxylase activities were determined as probe activities for CYP1A2, CYP2A6, CYP2B6, CYP2C8, CYP2C9, CYP2C19, CYP2D6, CYP2E1 and […], respectively, using substrate cocktail incubation and tandem mass spectrometry (Table 2). Selaginellins were dissolved in methanol. The final concentrations of organic solvent (methanol) for the cocktail incubation conditions in all experiments were 1.0% (v/v). In brief, the incubation mixtures containing pooled HLMs (0.25 mg/mL, H2630, Xenotech), P450 probe substrate cocktail, and inhibitor (0, 0.5, 2, 5, 20 and 50 μM) were preincubated at 37 °C for 5 min. […] After mixing and centrifugation, aliquots were analyzed by liquid chromatography-tandem mass spectrometry (LC-MS/MS) as previous described. The CYP2J2 inhibitory effects of two selaginellins were also evaluated in pooled HLMs using previously reported method. […]

CYP2A6 = target: T2, CYP2A6 (Homo sapiens, UniProt P11509); experiment: CYP2A6 inhibition (coumarin 7-hydroxylase) in human liver microsomes, substrate cocktail LC-MS/MS
T2 construct: the incubation mixtures containing pooled HLMs (0.25 mg/mL, H2630, Xenotech); tissue Xenotech H2630; host or cells: pooled human liver microsomes
T2 sequence (P11509 1-494): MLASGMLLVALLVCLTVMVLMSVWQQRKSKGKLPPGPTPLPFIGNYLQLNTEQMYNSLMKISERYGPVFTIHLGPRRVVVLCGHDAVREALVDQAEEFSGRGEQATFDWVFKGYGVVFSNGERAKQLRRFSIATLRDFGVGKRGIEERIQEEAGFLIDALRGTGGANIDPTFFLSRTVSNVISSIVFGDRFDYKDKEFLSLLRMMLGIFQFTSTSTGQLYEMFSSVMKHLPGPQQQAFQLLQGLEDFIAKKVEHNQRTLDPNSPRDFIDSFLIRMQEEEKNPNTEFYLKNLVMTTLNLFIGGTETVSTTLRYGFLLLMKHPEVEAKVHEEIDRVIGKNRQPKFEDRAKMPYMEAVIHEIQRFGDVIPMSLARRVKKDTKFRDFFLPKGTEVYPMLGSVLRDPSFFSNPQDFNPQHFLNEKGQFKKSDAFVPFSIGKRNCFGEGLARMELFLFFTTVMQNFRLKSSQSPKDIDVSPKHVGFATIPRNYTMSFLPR
Protocol: as §1

CYP2B6 = target: T3, CYP2B6 (Homo sapiens, UniProt P20813); experiment: CYP2B6 inhibition (bupropion 4-hydroxylase) in human liver microsomes, substrate cocktail LC-MS/MS
T3 construct: the incubation mixtures containing pooled HLMs (0.25 mg/mL, H2630, Xenotech); tissue Xenotech H2630; host or cells: pooled human liver microsomes
T3 sequence (P20813 1-491): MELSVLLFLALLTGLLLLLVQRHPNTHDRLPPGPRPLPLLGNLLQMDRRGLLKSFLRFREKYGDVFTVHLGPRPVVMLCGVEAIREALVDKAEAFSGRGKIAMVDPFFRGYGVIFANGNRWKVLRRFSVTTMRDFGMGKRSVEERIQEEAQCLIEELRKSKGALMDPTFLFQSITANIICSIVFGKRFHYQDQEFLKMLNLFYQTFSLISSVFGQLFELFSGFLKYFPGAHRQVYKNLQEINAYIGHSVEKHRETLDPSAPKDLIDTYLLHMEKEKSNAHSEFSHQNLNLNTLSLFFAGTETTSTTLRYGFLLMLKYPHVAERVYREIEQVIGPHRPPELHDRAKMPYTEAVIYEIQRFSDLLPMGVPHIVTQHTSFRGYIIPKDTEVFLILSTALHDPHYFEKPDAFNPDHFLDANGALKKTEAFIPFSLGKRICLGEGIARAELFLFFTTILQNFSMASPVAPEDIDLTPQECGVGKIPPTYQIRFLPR
Protocol: as §1

UGT2B7 = target: T4, UGT2B7 (Homo sapiens, UniProt P16662); experiment: UGT2B7 inhibition (naloxone glucuronidation) in human liver microsomes, cocktail LC-MS/MS
T4 construct: from tissue; host or cells: human liver microsomes
T4 sequence (P16662 24-529): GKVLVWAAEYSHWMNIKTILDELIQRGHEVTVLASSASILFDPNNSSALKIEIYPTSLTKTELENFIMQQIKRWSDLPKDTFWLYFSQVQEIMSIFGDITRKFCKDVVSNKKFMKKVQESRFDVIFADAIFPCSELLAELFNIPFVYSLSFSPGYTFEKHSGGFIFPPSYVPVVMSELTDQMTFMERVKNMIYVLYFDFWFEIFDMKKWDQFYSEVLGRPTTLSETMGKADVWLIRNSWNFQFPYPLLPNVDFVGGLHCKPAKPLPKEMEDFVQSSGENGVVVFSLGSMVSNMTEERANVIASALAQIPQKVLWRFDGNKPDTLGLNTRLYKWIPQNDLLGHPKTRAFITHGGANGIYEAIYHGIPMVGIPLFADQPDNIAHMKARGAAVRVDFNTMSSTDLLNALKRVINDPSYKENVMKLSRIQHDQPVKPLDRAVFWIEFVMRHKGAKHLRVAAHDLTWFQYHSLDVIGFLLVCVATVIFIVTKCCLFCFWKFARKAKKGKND
Protocol: The inhibitory effects of two selaginellins on the metabolism of six UGT probe substrates were evaluated using previously reported method with minor modification. In brief, HLMs (0.25 mg/mL) were activated by incubation in the presence of alamethicin (25 μg/mL) for 15 min on ice. After the addition of UGT isoform-selective substrates and selaginellins (0, 0.5, 2, 5, 20 and 50 μM) the final concentrations of organic solvent (methanol) for the cocktail incubation conditions were 1.0% (v/v). The incubation reaction mixtures were pre-incubated for 5 min. The reaction was initiated by the addition of 5 mM UDPGA and further incubated for 60 min. All reactions were terminated by adding ice-cold acetonitrile containing estrone glucuronide (IS). After mixing and centrifugation, aliquots were injected into a LC-MS/MS as described previously (Table 2). All microsomal incubations were performed in triplicate.
The IC50 values (concentration of the inhibitor causing 50% inhibition of the original enzyme activity) were calculated using WinNonlin software (Pharsight, Mountain View, CA, USA): percentage of control activity = 100 × [1 − (I/(I + IC50))], where I is the inhibitor concentration, and IC50 is the inflection point on the curve.

T1 sequence (P10635 whole entry): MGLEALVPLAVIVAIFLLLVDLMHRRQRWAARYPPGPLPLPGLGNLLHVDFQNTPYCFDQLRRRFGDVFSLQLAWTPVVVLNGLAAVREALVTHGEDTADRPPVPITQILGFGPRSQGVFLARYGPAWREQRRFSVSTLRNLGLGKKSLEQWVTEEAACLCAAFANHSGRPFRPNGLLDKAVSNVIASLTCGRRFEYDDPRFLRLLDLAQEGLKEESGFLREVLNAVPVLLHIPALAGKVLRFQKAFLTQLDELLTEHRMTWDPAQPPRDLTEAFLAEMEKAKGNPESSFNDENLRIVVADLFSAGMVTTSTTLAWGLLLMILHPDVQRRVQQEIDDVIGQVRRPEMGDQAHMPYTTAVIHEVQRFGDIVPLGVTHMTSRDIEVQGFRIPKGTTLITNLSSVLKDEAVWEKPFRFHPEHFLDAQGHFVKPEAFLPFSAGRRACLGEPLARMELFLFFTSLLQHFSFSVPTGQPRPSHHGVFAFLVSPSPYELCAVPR

| SMILES | IC50 (CYP2D6) [µM] | IC50 (CYP2A6) [µM] | IC50 (CYP2B6) [µM] | IC50 (UGT2B7) [µM] |
| --- | --- | --- | --- | --- |
| COc1ccc(C(=C2C=CC(=O)C=C2)c2c(-c3ccc(O)cc3)ccc(CO)c2C#Cc2ccc(O)cc2)cc1 [Selaginellin M] | 6.8 | > 50 | 11.3 | 10.4 |
| O=C1C=CC(=C(c2ccc(O)cc2)c2c(-c3ccc(O)cc3)ccc(CO)c2C#Cc2ccc(O)cc2)C=C1 [Selaginellin] | 5.8 | > 50 | 10.7 | 15.6 |

— paper PMC6151550, “Inhibitory Effect of Selaginellins from Selaginella tamariscina (Beauv.) Spring against Cytochrome P450 and Uridine 5′-Diphosphoglucuronosyltransferase Isoforms on Human Liver Microsomes” (Molecules : A Journal of Synthetic Chemistry and Natural …, 2017)
